The values that follow come from patent US10577350B2, “Crystalline forms of (R)-N-((4-methoxy-6-methyl-2-oxo-1,2-dihydropyridin-3-yl)methyl)-2-methyl-1-(1-(1-(2,2,2-trifluoroethyl)piperidin-4-yl)ethyl)-1H-indole-3-carboxamide” (Constellation Pharmaceuticals, Inc., priority 2015, dated 2020).

Usually Cmax stands for the maximum level reached in the sampled fluid or tissue. What is called solubility is how much of the substance goes into solution per volume. A lower solubility goes with little dissolved substance.

Data set [1] is described as follows: Aqueous solubility of solid forms (Table 2). The data set is classed as physicochemical.
Data set [2] can be described thus: DVS moisture sorption at 25° C. The data set is classed as physicochemical. Conditions: for Post DVS changes: after DVS, PLM, XRD, DSC, TGA; for DVS final sample wt lower than starting wt: after one full sorption cycle. The procedure:
Moisture sorption profiles were generated isothermally at 25° C. using a Hiden IGAsorp moisture sorption analyzer. Samples were dried on the instrument under inert nitrogen at 40° C. for 60 min. Following drying the samples moisture sorption was determined by performing one full cycle of weight measurements at 0, 10, 20, 30, 40, 50, 60, 70, 80, 90 and 95% RH, with exposure time at each humidity set point dependent upon a minimum of 99% confidence in the F1 fit model or 15 min, with a maximum timeout of 120 min. The moisture sorption isotherms were plotted as a function of weight change (relative weight % of the dried starting weight) and % RH.

The nature of data set [3]: Pharmacokinetics in rat after oral suspension. The conditions noted are these: for Cmax / AUC(0-t): plasma; for AUC(0-t): read-out: AUC0-24 h. The data set is classed as in vivo, rats. The source says:
Compound 365 was formulated similarly to Form C, suspension in 0.5% methylcellulose, 0.1% Tween 80 in purified water.

Data set [4] is described as follows: Pharmacokinetics in dog after oral suspension. The data set is classed as in vivo. The conditions noted are these: dogs (both genders), twice-daily oral; for Cmax / AUC(0-t): both sexes, dog, plasma, suspension in 0.5% methylcellulose; for AUC(0-t): read-out: AUC0-24 h. The procedure: Doses levels ranging from 50 mg/kg to 500 mg/kg were permitted to achieve pharmacological relevant systemic exposures.

The nature of data set [5]: Relative polymorph stability (statement). Conditions: compared with the other forms. The data set is classed as physicochemical.
[6] abbreviates: oral, rat, Table 8, formulated similarly to Form C (suspension in 0.5% methylcellulose, 0.1% Tween 80), 100 mg/kg/day.
Where [7] appears, read: oral, rat, Table 8, formulated similarly to Form C (suspension in 0.5% methylcellulose, 0.1% Tween 80), 300 mg/kg/day.
Where [8] appears, read: both sexes, rat, rats (both genders), once-daily oral, suspension in 0.5% methylcellulose, 0.1% Tween 80, 100 mg/kg/day.
The mark [9] stands for this setting: both sexes, rat, rats (both genders), once-daily oral, suspension in 0.5% methylcellulose, 0.1% Tween 80, 300 mg/kg/day.
Where [10] appears, read: both sexes, rat, rats (both genders), once-daily oral, suspension in 0.5% methylcellulose, 0.1% Tween 80, 600 mg/kg/day.

For the compound `COc1cc(C)[nH]c(=O)c1CNC(=O)c1c(C)n([C@H](C)C2CCN(CC(F)(F)F)CC2)c2ccccc12` [Amorphous, (R)—N-((4-methoxy-6-methyl-2-oxo-1,2-dihydropyridin-3-yl)methyl)-2-methyl-1-(1-(1-(2,2,2-trifluoroethyl)piperidin-4-yl)ethyl)-1H-indole-3-carboxamide], the “Aqueous Solubility” value is on record as “pH 1.2: ≥921 ug/mL” in data set [1] (pH 1.2), “pH 6.5: 18 ug/mL” in data set [1] (pH 6.5) and “pH 7.4: 140 ug/mL” in data set [1] (pH 7.4). Further, the “Post DVS changes” value in data set [2] is “Amorphous”. For the same compound, the “DVS final sample wt lower than starting wt” value in data set [2] was “same wt ~1%”. In addition, the DVS wt gain in data set [2] (at 95% RH, 25° C.) amounted to 7.4% wt gain. Moreover, the Cmax in data set [3] (setting [6]) stood at 7160 ng/mL; in data set [3] (setting [7]) it was 9810 ng/mL. In addition, the AUC(0-t) in data set [3] (setting [6]) amounted to 24200 ng·h/mL; in data set [3] (setting [7]) it was 78400 ng·h/mL. Also, the “Cmax and AUC compared with Form C” value in data set [3] (rat, at both 100 and 300 mpk) is on record as “slightly superior”.
Consider `COc1cc(C)[nH]c(=O)c1CNC(=O)c1c(C)n([C@H](C)C2CCN(CC(F)(F)F)CC2)c2ccccc12` [Form A, (R)—N-((4-methoxy-6-methyl-2-oxo-1,2-dihydropyridin-3-yl)methyl)-2-methyl-1-(1-(1-(2,2,2-trifluoroethyl)piperidin-4-yl)ethyl)-1H-indole-3-carboxamide], for which the solubility in data set [1] (aqueous medium at pH 1.2 (buffer not named), pH 1.2, simulated gastric fluid, pH 1.2) is at least 961 µg/mL. Moreover, the figures for the “Aqueous Solubility” value in data set [1] (pH 6.5) and in data set [1] (pH 7.4) were “pH 6.5: 31 ug/mL” and “pH 7.4: 28 ug/mL”, respectively. For the same compound, the “Post DVS changes” value in data set [2] came to 1% reduction. Also, the “DVS final sample wt lower than starting wt” value in data set [2] is given as “wt ~0.8 lower %”. For the same compound, the DVS wt gain in data set [2] (at 80% RH, 25° C.) was found to be 2% wt gain at; in data set [2] (at 95% RH, 25° C.), 5.3 wt gain at % wt.
In the case of `COc1cc(C)[nH]c(=O)c1CNC(=O)c1c(C)n([C@H](C)C2CCN(CC(F)(F)F)CC2)c2ccccc12` [Form B, (R)—N-((4-methoxy-6-methyl-2-oxo-1,2-dihydropyridin-3-yl)methyl)-2-methyl-1-(1-(1-(2,2,2-trifluoroethyl)piperidin-4-yl)ethyl)-1H-indole-3-carboxamide], the figures for the “Aqueous Solubility” value in data set [1] (pH 1.2), in data set [1] (pH 6.5) and in data set [1] (pH 7.4) were “pH 1.2: ≥970 ug/mL”, “pH 6.5: 120 ug/mL” and “pH 7.4: 112 ug/mL”, respectively. In data set [2], the “Post DVS changes” value is “No significant”. The compound also came in with a DVS wt gain in data set [2] (at 95% RH, 25° C.) of 7.2% wt gain.
Consider `COc1cc(C)[nH]c(=O)c1CNC(=O)c1c(C)n([C@H](C)C2CCN(CC(F)(F)F)CC2)c2ccccc12` [Form C, (R)—N-((4-methoxy-6-methyl-2-oxo-1,2-dihydropyridin-3-yl)methyl)-2-methyl-1-(1-(1-(2,2,2-trifluoroethyl)piperidin-4-yl)ethyl)-1H-indole-3-carboxamide], for which the “Aqueous Solubility” value in data set [1] (pH 1.2) was “pH 1.2: ≥913 ug/mL”; in data set [1] (pH 6.5), “pH 6.5: 14 ug/mL”; in data set [1] (pH 7.4), “pH 7.4: 9 ug/mL”. In addition, in data set [2] (25° C.), the DVS hygroscopicity result is “Non-”. Besides, the “Post DVS changes” value in data set [2] is “No significant”. The compound also came in with a DVS wt gain in data set [2] (at 95% RH, 25° C.) of at most 2.3% wt. The Cmax in data set [3] (setting [8]) was determined as 6140 ng/mL; in data set [3] (setting [9]), 12800 ng/mL; in data set [3] (setting [10]), 56800 ng/mL; in data set [4] (0.1% Tween 80, 50 mg/kg BID), 6600 ng/mL; in data set [4] (0.1% Tween 80, 150 mg/kg BID) it was 21300 ng/mL; in data set [4] (0.1% Tween 80, 500 mg/kg BID), 34200 ng/mL. In addition, the AUC(0-t) in data set [3] (setting [8]) worked out at 19600 ng·h/mL; in data set [3] (setting [9]) it was 86400 ng·h/mL; in data set [3] (setting [10]), 128000 ng·h/mL; in data set [4] (0.1% Tween 80, 50 mg/kg BID) it was 42200 ng·h/mL; in data set [4] (0.1% Tween 80, 150 mg/kg BID) it was 176000 ng·h/mL; in data set [4] (0.1% Tween 80, 500 mg/kg BID), 378000 ng·h/mL. Moreover, the “systemic exposure AUC(0-24), dependence on dose” value in data set [3] (rats (both genders), once-daily oral, between 100 and 600 mg/kg) is “increased dose-proportionally”; in data set [4] (between 50 and 500 mg/kg BID) it was “increased mostly dose-proportionally”. Further, the polymorph stability result in data set [5] is given as “the most stable polymorph”.
